From patent publication US20030235852A1, “Nucleic acid-peptide display libraries containing peptides with unnatural amino acid residues, and methods of making same using peptide modifying agents” (priority 2002, published 2003)
Like-named read-outs stand apart in the source and are kept apart here. Peptide text beside a SMILES is read from it. * marks the point of attachment. X1 = CC1(C)S[C@@H]2[C@H](NC(=O)C*)C(=O)N2[C@H]1C(=O)O

Key:
PBP2a = target: T1, PBP2a (Staphylococcus aureus, UniProt P07944); test: biochemical; format: biochemical
T1 construct: The truncated PBP2a gene (Roychoudhury et al., J. Biol. Chem. 269:112067-12073, 1994) (cleaved yes); made in house; host or cells: E. coli BL21(DE3)

[1] = target: penicillin-binding protein 2a (PBP2a), truncated, recombinant from E. coli (Staphylococcus aureus (methicillin-resistant, MRSA)) (UniProt P07944); test: relative IC50: competition with biotinylated ampicillin for PBP2a, SDS-PAGE and streptavidin-HRP blot
[2] = target: penicillin-binding protein 2a (PBP2a), truncated, recombinant from E. coli (Staphylococcus aureus (methicillin-resistant, MRSA)) (UniProt P07944); test: relative IC50: competition with biotinylated ampicillin for PBP2a

For `CC[C@H](C)[C@H](NC(=O)[C@H](CSCC(=O)N[C@@H]1C(=O)N2[C@@H]1SC(C)(C)[C@@H]2C(=O)O)NC(=O)[C@H](CC(N)=O)NC(=O)[C@H](CO)NC(=O)[C@H](CC(N)=O)NC(=O)[C@H](CCCNC(=N)N)NC(=O)[C@@H](N)CC(C)C)C(=O)N[C@@H](CCCNC(=N)N)C(=O)N[C@@H](Cc1c[nH]cn1)C(=O)N[C@@H](Cc1ccccc1)C(=O)N[C@@H](Cc1ccccc1)C(=O)O` [LRNSNC(pen)IRHFF] (H-LRNSNC(X1)IRHFF-OH), the IC50 (PBP2a; 2 μg pure PBP2a, conjugate 15 min at 37° C., then 20 μg biotinylated ampicillin 10 min, read-out: relative IC50) was about 7 mM and the “improvement of PBP2a inhibition over the parent penam” value (PBP2a; as compared) was “about 100 fold”.

`CO/N=C(\C(=O)N[C@@H]1C(=O)N2C(C(=O)O)=C(COC(C)=O)CS[C@H]12)c1csc(N)n1` [cefotaxime, reference compound] gave an IC50 (PBP2a) of 2.9 mM.

“LRNSNC(COOH)IRHFF (residues 2-12 of SEQ ID NO: 5), peptide derivatized with bromoacetic acid” showed an IC50 [1] of over 35 mM.

For “LRNSNC(pen)IRHFF (residues 2-12 of SEQ ID NO: 5), synthetic peptide penicillanate conjugate”, the fold improvement compared to 6-aminopenicillanic acid [2] was 100 fold.
